Literature values as cited in patent US20040229941A1, “Analeptic and antidepressant combinations” (Cephalon, Inc., priority 2003, published 2004).

Settings: at 6 weeks of antidepressant therapy

CNCCC(Oc1ccc(C(F)(F)F)cc1)c1ccccc1 (stereo not shown) [fluoxetine]
response: about 50%
